Two compounds from patent US20230210819A1, “USE OF BENZISOSELAZOLE DERIVATIVE FOR ANTI-CORONAVIRUS AND CONTROL OF INTERSTITIAL LUNG DISEASE (ILD) RELATED TO CORONAVIRUS” (SHANGHAI YUANXI MEDICINE CORP., priority 2020, published 2023) can be followed below.

Common to all, as to type: in vivo, C57 mice
Assay [1] concerns bleomycin-induced mouse lung disease model. Briefly: Lung and spleen coefficients, 24-h modeling. The protocol:
(§1) Animals of 24-h modeling were randomly divided into 5 groups according to the table below, 3 animals per control group and 5 animals per test group.
(§2) Drug administration began 24 h or 7 d after modeling. […] The day of the first administration was counted as D1, the next day as D2, and so forth. The normal groups and Model groups were given 200 µL of normal saline daily by gavage administration.
Method: after being euthanized, the animals were dissected, and the heart, liver, spleen, lung and kidney were weighed.
In this experiment, 105 C57 mice were randomly selected and subjected to organ drip administration of a single dose of bleomycin at 2.5 mg/kg for 24 h or 7 d for induction. After 7 days of induction, 3 model mice were randomly selected and dissected to determine whether the modeling was successful. After modeling, the survival of the mice was recorded. The living states of the mice were observed and their body weight was measured at a fixed time.
A normal control group comprised 3 mice.

The test system is the same in assay [2]. Briefly: Blood gas analysis, 24-h modeling. As to conditions: for BEect / HCO3^- / PCO2: arterial blood after administration ended. The method, then: as §1, §2
(§3) 1. After being anaesthetized, a mouse was fixed to a board in a supine position.
(§4) 2. After the skin was disinfected with alcohol, a midline cut of about 1.5 cm was made downward in the skin of the neck. The connective tissue between the sternohyoid muscle and the stemothyroid muscle was separated along the anterior border of the sternomastoid muscle with a tissue forceps. The pulsating common carotid artery could be seen on the deep right side of the trachea. A common carotid artery of about 1.5 cm in length was separated. The distal end was ligated with silk thread, and the proximal end was clipped with an artery clip and threaded with a silk thread for later use. The mouse board was placed under a dissecting microscope, and a V-shaped centripetal incision was gently made in a site near the distal end of the artery with a microscopy scissor. A PE microcatheter was inserted into the artery and fixed by making a knot with silk thread. The artery clip was removed, and 0.1-0.2 mL of blood was collected with a 1 mL syringe. The proximal end was clipped with an artery clip, and the syringe was removed. The blood was immediately analyzed on an AbboTTi-STAT blood gas microanalyzer.
(§5) In a blood gas analysis, the H^+ concentration in the blood and gases (mainly CO2 and O2) dissolved in the blood can be determined to directly reflect the function of pulmonary ventilation and the acid-base balance state. They are used to determine in the organism whether the acid-base balance is upset, whether anoxia occurred, the level of anoxia, and so forth.

The test system is the same in assay [3]. Briefly: Assay of lung tissues for hydroxyproline content, 24-h modeling. As to conditions: day 35 of administration. The method, then: as §1, §2
[…] 2 mL of pre-cooled normal saline was added. The tissues were cut into as many pieces as possible and centrifuged at 2000 rpm/min for 2 min, and the supernatant was discarded. • 2. To the precipitate was added 1 mL of RIPA lysis buffer (mixed protease inhibitor Cocktail was added in a ratio of 1:100 before use, and the resulting mixture was preserved on ice). […]
(II) Protein concentration assay by BCA • 1. […] A proper BCA working solution was freshly prepared according to the quantity of the standard substance and samples. […] The plate was incubated at 37° C. for 30 min, and the absorbance at 570 nm was measured on a microplate reader. The sample protein concentration was calculated from the standard curve.
(III) HYP level assay • 1. […] To each well was added 50 µL of terminating solution, and the absorbance was immediately measured at a wavelength of 450 nm. […]

Assay [4] shares this test system. Briefly: Blood gas analysis, 7-d modeling. Particulars: for BEect / HCO3^- / PCO2: arterial blood after administration ended. The method, then: Animals of 7-d modeling were randomly divided into 7 groups according to the table below, 6 animals per control group and 12 animals per test group.
as §2, §3, §4, §5

The mark [5] stands for this setting: Dex 1-1.5 mg/kg i.p. every two days.

In assay [1] (BS 90 mg/kg gavage daily), `O=c1c2ccccc2[se]n1CCCCn1[se]c2ccccc2c1=O` [BS, 1,4-[bis(1,2-benzisoselenazol-3(2H)-one)]butane] showed a Lung coefficient of 0.89±0.04%. Further, the Spleen coefficient in assay [1] (BS 90 mg/kg gavage daily) is 0.37±0.02%. Besides, in assay [1] (BS 90 mg/kg, effect better than that of Dex), the “Effect on spleen coefficient (in words)” value is on record as “significantly decrease the spleen coefficient”. Also, the BEect was -9.40 ± 1.14 mmol/L in assay [2] (BS 90 mg/kg gavage daily), -8.00 ± 1.10 mmol/L in assay [4] (BSH: BS 180 mg/kg gavage daily), -15.67 ± 4.13 mmol/L in assay [4] (BSL: BS 36 mg/kg gavage daily) and -9.83 ± 0.75 mmol/L in assay [4] (BSM: BS 90 mg/kg gavage daily). The “HCO3^-” value in assay [2] (BS 90 mg/kg gavage daily) is 30.00 ± 1.20 mmol/L; in assay [4] (BSH: BS 180 mg/kg gavage daily), 27.82 ± 0.91 mmol/L; in assay [4] (BSL: BS 36 mg/kg gavage daily), 22.30 ± 1.51 mmol/L; in assay [4] (BSM: BS 90 mg/kg gavage daily), 30.57 ± 1.42 mmol/L. Moreover, the PCO2 in assay [2] (BS 90 mg/kg gavage daily) is given as 30.84±1.21 mmHg; in assay [4] (BSH: BS 180 mg/kg gavage daily) it was 32.82±2.02 mmHg; in assay [4] (BSL: BS 36 mg/kg gavage daily), 27.45±1.35 mmHg; in assay [4] (BSM: BS 90 mg/kg gavage daily), 31.62±1.34 mmHg. In addition, the “Effect on blood gas analysis (in words)” value in assay [2] (BS 90 mg/kg, better than Dex (1-1.5 mg/kg) in general) is “significant improvements to the function of pulmonary ventilation and the acid-base balance states”; in assay [4] (BS 90 mg/kg and 180 mg/kg, better than Dex (1-1.5 mg/kg) in general), “significant improvements to the function of pulmonary ventilation and the acid-base balance states”. Also, the “HY7P, hydroxyproline content in the lungs” value in assay [3] (BS 90 mg/kg gavage daily) was 2.17 ± 0.19 µg/mL.

In the case of `C[C@@H]1C[C@H]2[C@@H]3CCC4=CC(=O)C=C[C@]4(C)[C@@]3(F)[C@@H](O)C[C@]2(C)[C@@]1(O)C(=O)CO` [Dex, dexamethasone, reference compound], in assay [1] (setting [5]), the Lung coefficient is listed as 0.93±0.09% and the Spleen coefficient is 0.41±0.06%. Besides, in assay [2] (setting [5]), the BEect was -9.20 ± 1.30 mmol/L, the “HCO3^-” value stood at 28.28 ± 1.56 mmol/L and the PCO2 worked out at 32.52±2.73 mmHg. Further, the “HY7P, hydroxyproline content in the lungs” value in assay [3] (setting [5]) came to 2.25 ± 0.31 µg/mL. In assay [4] (setting [5]), the BEect is -8.50 ± 1.05 mmol/L, the “HCO3^-” value amounted to 27.82 ± 1.08 mmol/L and the PCO2 was found to be 33.60±1.92 mmHg.
